Activity calls are given as the source filed them. No cut-off for these calls is given here.

Data set [1] has as its system Mus musculus. The data set can be described thus: In vivo agonist activity at PPARalpha/delta assessed as upregulation of Akr1c18 mRNA expression in C57BL/6Nifdc mouse liver at 10 mg/kg, po for 4 days. It is filed as functional, organism-based. Conditions: time 4.0 day.
In data set [2] the test system is Mus musculus. The data set can be described thus: In vivo agonist activity against PPARalpha/delta assessed as upregulation of Cpt2 mRNA expression in C57BL/6Nifdc mouse skeletal muscle at 10 mg/kg, po for 4 days. Conditions: time 4.0 day. The format is functional, organism-based.
Data set [3] concerns Mus musculus. Briefly: In vivo agonist activity against PPARalpha/delta assessed as upregulation of Pdk4 mRNA expression in C57BL/6Nifdc mouse skeletal muscle at 10 mg/kg, po for 4 days. It is filed as functional, organism-based. The settings on record: time 4.0 day.
Data set [4] has as its system Mus musculus. Briefly: In vivo agonist activity against PPARalpha/delta assessed as upregulation of -Mlycd mRNA expression in C57BL/6Nifdc mouse skeletal muscle at 10 mg/kg, po for 4 days. It is filed as functional, organism-based. Conditions: time 4.0 day.
The test system of data set [5] is Mus musculus. Briefly: In vivo agonist activity against PPARalpha/delta assessed as upregulation of Abca1 mRNA expression in C57BL/6Nifdc mouse skeletal muscle at 10 mg/kg, po for 4 days. The settings on record: time 4.0 day. The format is functional, organism-based.
Data set [6] concerns HepG2. Briefly: Agonist activity against PPARalpha/delta (unknown origin) assessed as upregulation of PDK4 mRNA expression in human HepG2 cells incubated for 12 hrs by RT-PCR analysis. It is filed as cell-based. The settings on record: filed as agonist, dose 8-200 nM.
Data set [7] has as its system Mus musculus. Briefly: Anti-inflammatory activity in HF-CDAA-induced nonalcoholic steatohepatitis C57BL/6JNifdc mouse model assessed as decrease in Tnf mRNA expression at 10 mg/kg, po. It is filed as functional, organism-based.
Data set [8] concerns Mus musculus. Briefly: In vivo agonist activity at PPARalpha/delta assessed as upregulation of -Ehhadh mRNA expression in C57BL/6Nifdc mouse liver at 10 mg/kg, po for 4 days. Conditions: time 4.0 day. The format is functional, organism-based.
The target of data set [9] is T1, Peroxisome proliferator-activated receptor delta (Mus musculus, UniProt P35396).
T1 sequence (P35396 whole entry): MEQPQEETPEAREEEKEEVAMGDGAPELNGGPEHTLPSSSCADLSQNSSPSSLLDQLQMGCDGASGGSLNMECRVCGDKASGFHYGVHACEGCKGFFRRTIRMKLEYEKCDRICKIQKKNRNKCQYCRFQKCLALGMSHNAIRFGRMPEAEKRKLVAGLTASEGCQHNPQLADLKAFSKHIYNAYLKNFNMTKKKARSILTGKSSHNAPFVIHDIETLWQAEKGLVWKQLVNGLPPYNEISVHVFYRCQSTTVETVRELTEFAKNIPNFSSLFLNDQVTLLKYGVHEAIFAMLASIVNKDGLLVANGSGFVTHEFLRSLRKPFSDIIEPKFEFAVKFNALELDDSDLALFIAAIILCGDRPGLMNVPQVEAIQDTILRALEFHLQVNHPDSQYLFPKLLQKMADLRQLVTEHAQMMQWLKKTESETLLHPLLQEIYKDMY
Briefly: Agonist activity at mouse PPARdelta in Cos7 cells transfected with pBIND and pGL4.35 Gal4 UAS Luc reporter plasmid by measuring luciferase activity incubated for 16 hrs by luciferase reporter gene assay. (Reporter assays use an easily measured gene product as a stand-in for the process of interest.)

The subject of data set [10] is Mus musculus. The data set can be described thus: In vivo agonist activity against PPARalpha/delta assessed as upregulation of Cd36 mRNA expression in C57BL/6Nifdc mouse liver at 10 mg/kg, po for 4 days. It is filed as functional, organism-based. Conditions: time 4.0 day.
In data set [11] the test system is Mus musculus. The data set can be described thus: In vivo agonist activity at PPARalpha/delta assessed as upregulation of Lipa mRNA expression in C57BL/6Nifdc mouse liver at 10 mg/kg, po for 4 days. It is filed as functional, organism-based. The settings on record: time 4.0 day.
Data set [12] relates to Mus musculus. Briefly: In vivo agonist activity at PPARalpha/delta assessed as upregulation of Cdkn1a mRNA expression in C57BL/6Nifdc mouse liver at 10 mg/kg, po for 4 days. It is filed as functional, organism-based. Conditions: time 4.0 day.
Data set [13] deals with Mus musculus. The data set can be described thus: In vivo agonist activity against PPARalpha/delta assessed as upregulation of Plin5 mRNA expression in C57BL/6Nifdc mouse skeletal muscle at 10 mg/kg, po for 4 days. The settings on record: time 4.0 day. It is filed as functional, organism-based.
Data set [14] concerns Mus musculus. Briefly: In vivo agonist activity at PPARalpha/delta assessed as upregulation of -Grhpr mRNA expression in C57BL/6Nifdc mouse liver at 10 mg/kg, po for 4 days. Conditions: time 4.0 day. It is filed as functional, organism-based.
Another data set relates to AML12. Briefly: Agonist activity against PPARalpha/delta (unknown origin) assessed as upregulation of ACADVL mRNA expression in […] cells at 8 nM incubated for 12 hrs by RT-PCR analysis. It is filed as cell-based. Conditions: filed as agonist.
Data set [15] concerns Mus musculus. The data set can be described thus: In vivo agonist activity against PPARalpha/delta assessed as upregulation of Mat2a mRNA expression in C57BL/6Nifdc mouse liver at 10 mg/kg, po for 4 days. It is filed as functional, organism-based. Conditions: time 4.0 day.
For data set [16], the system named is Mus musculus. The data set can be described thus: In vivo agonist activity at PPARalpha/delta assessed as upregulation of Fads2 mRNA expression in C57BL/6Nifdc mouse liver at 10 mg/kg, po for 4 days. It is filed as functional, organism-based. The settings on record: time 4.0 day.
Data set [17] addresses Voltage-gated inwardly rectifying potassium channel KCNH2 (Homo sapiens, UniProt Q12809). The data set can be described thus: Inhibition of hERG potassium channel in HEK293 cells upto 30 uM by whole-cell patch clamp assay. The format is toxicity, cell-based. On the technique in general: hERG is a cardiac potassium channel; its block is linked to QT prolongation.
The test system of data set [18] is Mus musculus. Briefly: In vivo agonist activity against PPARalpha/delta assessed as upregulation of Cd36 mRNA expression in C57BL/6Nifdc mouse skeletal muscle at 10 mg/kg, po for 4 days. The format is functional, organism-based. Conditions: time 4.0 day.
Data set [19] relates to Mus musculus. The data set can be described thus: In vivo agonist activity against PPARalpha/delta assessed as upregulation of Me1 mRNA expression in C57BL/6Nifdc mouse liver at 10 mg/kg, po for 4 days. Conditions: time 4.0 day. The format is functional, organism-based.
The subject of a further data set is COS7. The data set can be described thus: Agonist activity at human FXR (193 to 486 residues) in Cos7 cells transfected with LBD-Gal4 and pGL435 Gal4 UAS Luc reporter plasmid at 10 uM by reporter gene assay. It is filed as cell-based.
The test system of data set [20] is Mus musculus. Briefly: Anti-fibrosis effect in HF-CDAA-induced nonalcoholic steatohepatitis C57BL/6JNifdc mouse model assessed as expression of Tgfb1 marker at 10 mg/kg, po after 20 hrs by Western blot analysis. The format is functional, organism-based. A general note: A western blot detects proteins with antibodies after separation by electrophoresis.
Data set [21] addresses T2, Peroxisome proliferator-activated receptor alpha (Homo sapiens) (UniProt Q07869).
T2 sequence (whole entry): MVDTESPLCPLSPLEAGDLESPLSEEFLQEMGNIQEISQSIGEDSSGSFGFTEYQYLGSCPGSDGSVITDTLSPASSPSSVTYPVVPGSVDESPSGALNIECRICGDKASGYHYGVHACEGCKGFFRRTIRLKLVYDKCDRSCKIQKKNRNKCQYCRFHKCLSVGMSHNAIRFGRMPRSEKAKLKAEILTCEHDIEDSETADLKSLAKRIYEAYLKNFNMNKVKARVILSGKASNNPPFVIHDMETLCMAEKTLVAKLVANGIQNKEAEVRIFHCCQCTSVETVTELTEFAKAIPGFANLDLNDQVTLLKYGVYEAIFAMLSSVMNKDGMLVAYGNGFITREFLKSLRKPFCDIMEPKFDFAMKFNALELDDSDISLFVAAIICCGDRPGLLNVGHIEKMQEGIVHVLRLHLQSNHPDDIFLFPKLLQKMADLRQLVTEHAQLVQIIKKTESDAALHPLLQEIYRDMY
Conditions: filed as agonist, dose 10.0 nM.
Description: Agonist activity at PPARalpha (unknown origin) assessed as maximal activation at 10 nM relative to GW7647

Data set [22] deals with HepG2. Briefly: Agonist activity against PPARalpha/delta (unknown origin) assessed as upregulation of CPT1A mRNA expression in human HepG2 cells incubated for 12 hrs by RT-PCR analysis. It is filed as cell-based. The settings on record: filed as agonist, dose 8-200 nM.

Voltage-gated inwardly rectifying potassium channel KCNH2, sequence (Q12809 whole entry): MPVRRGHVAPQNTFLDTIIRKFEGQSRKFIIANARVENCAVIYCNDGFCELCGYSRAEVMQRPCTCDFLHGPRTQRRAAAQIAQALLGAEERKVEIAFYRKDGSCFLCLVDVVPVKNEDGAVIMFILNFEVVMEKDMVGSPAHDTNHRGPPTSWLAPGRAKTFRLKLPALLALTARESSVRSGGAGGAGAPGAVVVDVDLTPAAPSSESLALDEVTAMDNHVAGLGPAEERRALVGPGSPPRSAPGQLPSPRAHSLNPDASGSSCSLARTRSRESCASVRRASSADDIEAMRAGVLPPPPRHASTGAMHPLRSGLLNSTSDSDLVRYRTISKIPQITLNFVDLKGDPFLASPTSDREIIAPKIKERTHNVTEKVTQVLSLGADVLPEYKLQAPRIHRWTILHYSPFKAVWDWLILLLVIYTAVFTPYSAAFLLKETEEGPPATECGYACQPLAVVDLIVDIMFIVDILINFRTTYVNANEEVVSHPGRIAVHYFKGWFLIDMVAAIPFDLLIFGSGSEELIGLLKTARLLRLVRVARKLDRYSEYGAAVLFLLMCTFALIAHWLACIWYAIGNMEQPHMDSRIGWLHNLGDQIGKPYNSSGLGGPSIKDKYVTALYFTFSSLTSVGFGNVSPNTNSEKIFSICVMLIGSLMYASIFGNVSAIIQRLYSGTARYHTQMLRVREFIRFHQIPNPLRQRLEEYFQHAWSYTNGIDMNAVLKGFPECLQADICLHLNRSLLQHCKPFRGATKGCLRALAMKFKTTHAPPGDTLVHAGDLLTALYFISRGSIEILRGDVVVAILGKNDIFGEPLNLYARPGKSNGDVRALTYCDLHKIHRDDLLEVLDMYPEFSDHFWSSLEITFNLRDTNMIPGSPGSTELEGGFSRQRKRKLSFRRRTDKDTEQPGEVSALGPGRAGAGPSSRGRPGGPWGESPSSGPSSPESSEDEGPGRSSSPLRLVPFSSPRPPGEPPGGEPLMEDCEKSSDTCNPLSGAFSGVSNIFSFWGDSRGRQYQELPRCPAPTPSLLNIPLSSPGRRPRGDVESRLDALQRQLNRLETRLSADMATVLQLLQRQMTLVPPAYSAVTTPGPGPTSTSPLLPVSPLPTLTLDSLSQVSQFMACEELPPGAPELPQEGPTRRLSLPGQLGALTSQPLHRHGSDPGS

In the case of `Cc1cc(Cn2ncn(-c3ccc(OC(F)(F)F)cc3)c2=O)cc(C)c1OC(C)(C)C(=O)O`, the outcome with Mus musculus [1], in the data set with Mus musculus [2], with Mus musculus [3], in the data set on Mus musculus [4], with Mus musculus [5] and in the data set on Mus musculus [7] was Active. Further, the result in the data set with Mus musculus [8], in the data set on Mus musculus [10], in the data set on Mus musculus [11], with Mus musculus [12], in the data set with Mus musculus [13] and in the data set on Mus musculus [14] was Active. In addition, the outcome in the data set on AML12, with Mus musculus [15], in the data set with Mus musculus [16], with Mus musculus [18], in the data set on Mus musculus [19] and in the data set on Mus musculus [20] was Active. The Activity entry in the data set on HepG2 [6] and in the data set on HepG2 [22] was “Dose-Dependent Effect” each time. The compound also showed an EC50 in data set [9] of 19.7 nM. The “inhibition (INH)” value in data set [17] is on record as “Active”. In the data set with COS7, the result was inactive. The same compound showed an Emax in [21] of 110%.

Broadly, the EC50 is the concentration giving half of the maximal effect. A high value points to a less potent agent.

Source of the values: ChEMBL document CHEMBL5042526, “Design, Synthesis, and Biological Evaluation of Triazolone Derivatives as Potent PPARα/δ Dual Agonists for the Treatment of Nonalcoholic Steatohepatitis” (J Med Chem, 2022).
